Toxic doses and inconclusive results are not listed. The calls were made as follows: active = survival T/C of 150% or more; inactive = T/C below 125% in these data.
Test system: CD2F1 mice, L1210 leukemia ip, survival T/C
Test: NCI In Vivo Anticancer Drug Screen. Data for tumor model L1210 Leukemia (intraperitoneal) in CD2F1 (CDF1) mice
Conditions: higher = longer survival
Outline: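 Implant tumor; dose compound or vehicle; measure endpoint in both groups; report treated divided by control.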

[1] = endpoint: mean survival time, dose: 100.0 mg/kg/injection, schedule: Q01DX001 (ip), vehicle: saline
[2] = endpoint: mean survival time, dose: 100.0 mg/kg/injection, schedule: Q04DX003 (ip), vehicle: saline with Tween-80
[3] = endpoint: mean survival time, dose: 25.0 mg/kg/injection, schedule: Q01DX009 (ip), vehicle: saline with Tween-80
[4] = endpoint: mean survival time, dose: 50.0 mg/kg/injection, schedule: Q01DX009 (ip), vehicle: saline with Tween-80
[5] = endpoint: mean survival time, dose: 100.0 mg/kg/injection, schedule: Q01DX009 (ip), vehicle: saline with Tween-80
[6] = endpoint: mean survival time, dose: 200.0 mg/kg/injection, schedule: Q04DX003 (ip), vehicle: saline with Tween-80
[7] = endpoint: mean survival time, dose: 400.0 mg/kg/injection, schedule: Q04DX003 (ip), vehicle: saline with Tween-80
[8] = endpoint: mean survival time, dose: 100.0 mg/kg/injection, schedule: Q01DX001 (ip), vehicle: saline with Tween-80
[9] = endpoint: mean survival time, dose: 200.0 mg/kg/injection, schedule: Q01DX001 (ip), vehicle: saline with Tween-80
[10] = endpoint: mean survival time, dose: 400.0 mg/kg/injection, schedule: Q01DX001 (ip), vehicle: saline with Tween-80
[11] = endpoint: mean survival time, dose: 200.0 mg/kg/injection, schedule: Q01DX009 (ip), vehicle: saline with Tween-80
[12] = endpoint: mean survival time, dose: 12.5 mg/kg/injection, schedule: Q01DX009 (ip), vehicle: saline with Tween-80
[13] = endpoint: mean survival time, dose: 50.0 mg/kg/injection, schedule: Q04DX003 (ip), vehicle: saline with Tween-80

Measured: T/C

CCCCC(CC)CCC(OC(=O)CSC#N)C(C)CC (centres undefined)
inactive: [1] 97 % of control | endpoint: mean survival time, dose: 200.0 mg/kg/injection, schedule: Q01DX001 (ip), vehicle: saline 91 % of control | endpoint: mean survival time, dose: 400.0 mg/kg/injection, schedule: Q01DX001 (ip), vehicle: saline 97 % of control

COc1ccn(C2OCCC(N=[N+]=[N-])C2O)c(=O)n1 (centres undefined)
inactive: endpoint: median survival time, dose: 12.5 mg/kg/injection, schedule: Q01DX005 (ip), vehicle: alkali diluted with saline 109 % of control | endpoint: median survival time, dose: 25.0 mg/kg/injection, schedule: Q01DX005 (ip), vehicle: alkali diluted with saline 102 % of control | endpoint: median survival time, dose: 50.0 mg/kg/injection, schedule: Q01DX005 (ip), vehicle: alkali diluted with saline 108 % of control | endpoint: median survival time, dose: 100.0 mg/kg/injection, schedule: Q01DX005 (ip), vehicle: alkali diluted with saline 109 % of control | endpoint: median survival time, dose: 200.0 mg/kg/injection, schedule: Q01DX005 (ip), vehicle: alkali diluted with saline 98 % of control

O=c1[nH]c2cc([N+](=O)[O-])ccc2c2ccccc12
inactive: endpoint: mean survival time, dose: 50.0 mg/kg/injection, schedule: Q01DX001 (ip), vehicle: carboxymethylcellulose (CMC) 101 % of control | endpoint: mean survival time, dose: 100.0 mg/kg/injection, schedule: Q01DX001 (ip), vehicle: carboxymethylcellulose (CMC) 98 % of control | endpoint: mean survival time, dose: 200.0 mg/kg/injection, schedule: Q01DX001 (ip), vehicle: carboxymethylcellulose (CMC) 98 % of control | endpoint: mean survival time, dose: 400.0 mg/kg/injection, schedule: Q01DX001 (ip), vehicle: carboxymethylcellulose (CMC) 98 % of control

[NH-]NC(=S)[S-].[NH-]NC(=S)[S-].[Pd]
inactive: [2] 91 % of control

Cc1ccc(S(=O)(=O)OC2C(O)C(CO)OC2n2c(Br)c(C#N)c3c(N)ncnc32)cc1 (centres undefined)
inactive: endpoint: mean survival time, dose: 25.0 mg/kg/injection, schedule: Q01DX005 (ip), vehicle: saline with Tween-80 93 % of control | endpoint: mean survival time, dose: 50.0 mg/kg/injection, schedule: Q01DX005 (ip), vehicle: saline with Tween-80 102 % of control | endpoint: mean survival time, dose: 100.0 mg/kg/injection, schedule: Q01DX005 (ip), vehicle: saline with Tween-80 100 % of control | endpoint: mean survival time, dose: 200.0 mg/kg/injection, schedule: Q01DX005 (ip), vehicle: saline with Tween-80 96 % of control

Cc1nc2[nH]c(=O)[nH]c(=O)c2[nH]1
inactive: [3] 94 % of control | [4] 96 % of control | [5] 92 % of control

O=C(COc1ccc(Cl)c(Cl)c1)Nc1ccc(C(=O)CCl)cc1
inactive: [2] 100 % of control | [6] 97 % of control | [7] 114 % of control

CN1CCSC1=S
inactive: endpoint: mean survival time, dose: 75.0 mg/kg/injection, schedule: Q01DX001 (ip), vehicle: other 92 % of control | endpoint: mean survival time, dose: 150.0 mg/kg/injection, schedule: Q01DX001 (ip), vehicle: other 96 % of control | endpoint: mean survival time, dose: 300.0 mg/kg/injection, schedule: Q01DX001 (ip), vehicle: other 104 % of control

C=C1C(=O)OC2CC(C)C3CC(OCCCl)OC(OCCCl)C3(C)CC12 (centres undefined)
inactive: endpoint: mean survival time, dose: 10.0 mg/kg/injection, schedule: Q01DX005 (ip), vehicle: water 98 % of control | endpoint: mean survival time, dose: 20.0 mg/kg/injection, schedule: Q01DX005 (ip), vehicle: water 96 % of control | endpoint: mean survival time, dose: 40.0 mg/kg/injection, schedule: Q01DX005 (ip), vehicle: water 93 % of control | endpoint: mean survival time, dose: 50.0 mg/kg/injection, schedule: Q01DX005 (ip), vehicle: distilled water + Tween-80 92 % of control | endpoint: mean survival time, dose: 80.0 mg/kg/injection, schedule: Q01DX005 (ip), vehicle: water 94 % of control | endpoint: mean survival time, dose: 100.0 mg/kg/injection, schedule: Q01DX005 (ip), vehicle: distilled water + Tween-80 97 % of control | endpoint: mean survival time, dose: 200.0 mg/kg/injection, schedule: Q01DX005 (ip), vehicle: distilled water + Tween-80 89 % of control | endpoint: mean survival time, dose: 400.0 mg/kg/injection, schedule: Q01DX005 (ip), vehicle: distilled water + Tween-80 94 % of control

c1ccc(-c2ccccc2N=C2N=NN=N2)cc1
inactive: [8] 96 % of control | [2] 103 % of control | [9] 114 % of control | [6] 93 % of control | [10] 94 % of control | [7] 97 % of control

CCOc1ccccc1NC(=O)NC1C(OC(C)=O)OC(COC(C)=O)C(OC(C)=O)C1OC(C)=O (centres undefined)
inactive: endpoint: mean survival time, dose: 12.5 mg/kg/injection, schedule: Q01DX009 (ip), vehicle: other 94 % of control | endpoint: mean survival time, dose: 25.0 mg/kg/injection, schedule: Q01DX009 (ip), vehicle: other 100 % of control | endpoint: mean survival time, dose: 50.0 mg/kg/injection, schedule: Q01DX009 (ip), vehicle: other 94 % of control | endpoint: mean survival time, dose: 100.0 mg/kg/injection, schedule: Q01DX009 (ip), vehicle: other 96 % of control | endpoint: mean survival time, dose: 200.0 mg/kg/injection, schedule: Q01DX009 (ip), vehicle: other 90 % of control

COc1ccc(OC)c(/C=C/c2ccc3ccccc3n2)c1
inactive: [5] 110 % of control | [2] 104 % of control | [11] 98 % of control | [6] 104 % of control | endpoint: mean survival time, dose: 400.0 mg/kg/injection, schedule: Q01DX009 (ip), vehicle: saline with Tween-80 106 % of control | [7] 108 % of control

COc1cc([N+](=O)[O-])ccc1NC=O
inactive: endpoint: mean survival time, dose: 25.0 mg/kg/injection, schedule: Q04DX002 (ip), vehicle: saline with Tween-80 103 % of control | endpoint: mean survival time, dose: 50.0 mg/kg/injection, schedule: Q04DX002 (ip), vehicle: saline with Tween-80 103 % of control | endpoint: mean survival time, dose: 100.0 mg/kg/injection, schedule: Q04DX002 (ip), vehicle: saline with Tween-80 90 % of control

CN(C)C=Nc1cccc2[nH]c3ccccc3c12
inactive: [12] 92 % of control | [3] 104 % of control | [4] 97 % of control | [8] 92 % of control | [5] 103 % of control | [9] 101 % of control

CN(C)Cc1cccc(CN(C)C)c1O
inactive: [1] 106 % of control

COc1ccc(NC(=O)Oc2cccc3ccccc23)c(Cl)c1
inactive: endpoint: mean survival time, dose: 50.0 mg/kg/injection, schedule: Q01DX009 (ip), vehicle: Klucel (hydroxypropylcellulose) (HPC) 100 % of control | endpoint: mean survival time, dose: 100.0 mg/kg/injection, schedule: Q01DX009 (ip), vehicle: Klucel (hydroxypropylcellulose) (HPC) 100 % of control | endpoint: mean survival time, dose: 100.0 mg/kg/injection, schedule: Q04DX003 (ip), vehicle: Klucel (hydroxypropylcellulose) (HPC) 106 % of control | endpoint: mean survival time, dose: 200.0 mg/kg/injection, schedule: Q01DX009 (ip), vehicle: Klucel (hydroxypropylcellulose) (HPC) 100 % of control | endpoint: mean survival time, dose: 200.0 mg/kg/injection, schedule: Q04DX003 (ip), vehicle: Klucel (hydroxypropylcellulose) (HPC) 106 % of control | endpoint: mean survival time, dose: 400.0 mg/kg/injection, schedule: Q04DX003 (ip), vehicle: Klucel (hydroxypropylcellulose) (HPC) 102 % of control

O=[N+]([O-])c1ccccc1NCCO
inactive: [8] 101 % of control | [9] 98 % of control | [10] 102 % of control

S=C(NCCNC(=S)[S][Sn]([c]1ccccc1)([c]1ccccc1)[c]1ccccc1)[S][Sn]([c]1ccccc1)([c]1ccccc1)[c]1ccccc1
inactive: endpoint: mean survival time, dose: 25.0 mg/kg/injection, schedule: Q04DX003 (ip), vehicle: saline with Tween-80 88 % of control | [13] 93 % of control | [2] 100 % of control

CCOC(=O)/C(C#N)=C1\CCCc2ccccc21
inactive: endpoint: mean survival time, dose: 100.0 mg/kg/injection, schedule: Q04DX003 (ip), vehicle: acetone 94 % of control | endpoint: mean survival time, dose: 200.0 mg/kg/injection, schedule: Q04DX003 (ip), vehicle: acetone 91 % of control

NC(=O)c1ncn(C2OC(CO)C(O)C2O)c1Cl (centres undefined)
inactive: endpoint: median survival time, dose: 8.0 mg/kg/injection, schedule: Q01DX005 (ip), vehicle: water 100 % of control | endpoint: median survival time, dose: 16.0 mg/kg/injection, schedule: Q01DX005 (ip), vehicle: water 103 % of control | endpoint: median survival time, dose: 32.0 mg/kg/injection, schedule: Q01DX005 (ip), vehicle: water 100 % of control | endpoint: median survival time, dose: 64.0 mg/kg/injection, schedule: Q01DX005 (ip), vehicle: water 100 % of control | endpoint: median survival time, dose: 128.0 mg/kg/injection, schedule: Q01DX005 (ip), vehicle: water 107 % of control

CC(=O)CCCCOC(C)=O
inactive: [2] 101 % of control | [6] 101 % of control | [7] 98 % of control

C=CCCCCCCCCC(=O)N(CC#N)CC(C)C
inactive: [5] 104 % of control | [2] 96 % of control | [11] 96 % of control | [6] 100 % of control | [7] 94 % of control

CC(=O)Nc1cccc(OCOc2ccc([N+](=O)[O-])cc2)c1
inactive: endpoint: mean survival time, dose: 100.0 mg/kg/injection, schedule: Q01DX001 (ip), vehicle: Klucel (hydroxypropylcellulose) (HPC) 90 % of control | endpoint: mean survival time, dose: 200.0 mg/kg/injection, schedule: Q01DX001 (ip), vehicle: Klucel (hydroxypropylcellulose) (HPC) 110 % of control | endpoint: mean survival time, dose: 400.0 mg/kg/injection, schedule: Q01DX001 (ip), vehicle: Klucel (hydroxypropylcellulose) (HPC) 97 % of control

Cc1cc(C)c(CCl)cc1CCl
inactive: [12] 100 % of control | [3] 98 % of control | [13] 103 % of control

Source: PubChem BioAssay AID256 (DTP/NCI, 2004)
